4 compounds from patent publication US6379965B1, “Multifunctional complexes for gene transfer into cells comprising a nucleic acid bound to a polyamine and having an endosome disruption agent” (American Home Products Corporation, priority 1994, dated 2002) can be followed below.

For assay [1], the system named is Human hepatocellular carcinoma HuH7 cells. The assay can be described thus: Transfection of adherent HuH7 cells in culture with pCMVβ plasmid, β-galactosidase activity. Type of assay: cell-based. Particulars: HuH7 lysate; 0.5 μg pCMVβ plasmid + 0.5 μg tri-galactosyl-lysyl-lysyl aminopentyl spermidine + 2.5 μg cholesteryl-oxycarbonyl aminopentyl spermidine in 100 μL Optimem; after 30 min. The protocol:
Human hepatocellular carcinoma HuH7 cells were grown and seeded into a 96 well plate with 1-2×10^4 cells in 100 μL of minimal essential media α, modification with 10% serum. The plates were incubated in a 37° CO2 incubator until the cells were 60-80% confluent (approximately 24 hrs). The media was removed and the cells washed once with Optimem® (serum free media). Optimem® (100 μL) containing 0.5 μg of pCMVβ plasmid (from Clonetech, No. 6177-1), 0.5 μg of N^4-(5-[N^2,N^6-bis(β-3′-propionyl galactosyl-β1-4-thioglucoside)lysyl-N^6-(β-3′-propionyl galactosyl-β1-4-thioglucoside)lysyl]aminopentyl)-spermidine and 2.5 μg of N^4-(5-cholestene-3′β-oxycarbonyl)-aminopentyl)spermidine was added to the cells. The cells were incubated with the mixture for 4 hrs in a 37° CO2 incubator; thereafter 100 μL of media containing 20% serum was added and the incubation continued for an additional 20 hrs. Cells lysed with 0.5% NP-40 in 140 mM NaCl, 10 mM tris, 1.5 mM MgCl2 were assayed for β-galactosidase activity using o-nitrophenyl β-D-galactopyranoside, and gave A405=1.35 after 30 min. Cells grown in 6 well plates (25 mm diameter) and treated similarly were fixed with 2% paraformaldehyde and assayed for β-galactosidase activity using 5-bromo-4-chloro-3-indolyl β-D-galactopyranoside (J. Sambrook, et al., Molecular Cloning: A Laboratory Manual, Cold Spring Harbor, 1989).

The next assay has as its system Liver Cells. The assay can be described thus: Transfection of liver cells in vivo with pHBVSA plasmid, serum hepatitus B surface antigen immunoassay. Particulars: 10 μg pHBVSA plasmid + 5 μg tri-galactosyl compound + 25 μg cholesteryl compound in 100 μL PBS, tail vein; 48 hrs post-injection; example in present tense. More on the design: species or system BALB-C mice. The protocol:
[…] The plasmid solution (100 μL) is injected into the tail vein of 6-12 week old BALB-C mice. The mice are sacrificed 48-120 hrs later and the serum tested for hepatitus B surface antigen using a commercial enzyme-linked immunoassay.

A further assay concerns Muscle Cells. Briefly: Transfection of muscle cells in vivo with pCMVβ plasmid, β-galactosidase staining of quadriceps. More on the design: species or system BALB-C mice. Particulars: 100 μg pCMVβ plasmid + 100 μg compound in 100 μL PBS, injected into rear quadriceps, approx. 96 hrs; control plasmid in 0.25% bupivicaine hydrochloride. The protocol: Solutions were prepared containing 100 μg of pCMVβ plasmid and 100 μg of either N^4-octylspermidine, N^4-dodecylspermidine or N^4-(5-cholestene-3′β-oxycarbonyl)aminopentyl)spermidine, each in 100 μL of phosphate buffered saline. The plasmid solution (100 μL) was injected into the rear quadriceps of 6-12 week old BALB-C mice. The mice were sacrificed approximately 96 hrs later and the entire quadriceps muscle tissue was removed. The muscle was fixed with formalin for 2 hrs, and assayed for β-galactosidase activity using 5-bromo-4-chloro-3-indolyl-β-D-galactopyranoside (1 mg/mL in tris/EDTA pH 8.5). All three injections were scored as positive since the blue color was more intense than the control: injection of 100 μg of pCMVβ plasmid injected in 100 μL of 0.25% bupivicaine hydrochloride in citrate buffer pH 6.0.

“4-[(N^2-[N^2,N^6-bis(3-[4-O(β-D-galactopyranosyl)-β-D-glucopyranosylthio]propionyl)lysyl]N^6-(3-[4-O-(β-D-galactopyranosyl)-β-D-glucopyranosylthio]-propionyl)lysinamido)pentyl]-1,8-diamino-4-azaoctane, acetate salt”: in assay [1], the “β-galactosidase activity using o-nitrophenyl β-D-galactopyranoside, A405” value is 1.35. In addition, the “production of hepatitus B surface antigen in serum” value in the assay on Liver Cells is recorded as “greater than the positive control”.

`CC(C)CCC[C@@H](C)[C@H]1CC[C@H]2[C@@H]3CC=C4C[C@@H](OC(=O)NCCCCCN(CCCN)CCCCN)CC[C@]4(C)[C@H]3CC[C@]12C.Cl` [N^4-(5-cholestene-3′β-oxycarbonyl)aminopentyl spermidine hydrochloride Salt]: the “β-galactosidase activity using o-nitrophenyl β-D-galactopyranoside, A405” value in assay [1] turned out to be 1.35. Besides, the “β-galactosidase staining of quadriceps muscle, score versus control” value with Muscle Cells was “positive”. Also, in the assay on Liver Cells, the “production of hepatitus B surface antigen in serum” value is “greater than the positive control”.

In the case of `CCCCCCCCCCCCN(CCCN)CCCCN.Cl.Cl.Cl` [N^4-dodecylspermidine, N^4-dodecylspermidine trihydrochloride], in the assay with Muscle Cells, the “β-galactosidase staining of quadriceps muscle, score versus control” value is given as “positive”.

In the case of N^4-octylspermidine, in the assay on Muscle Cells, the “β-galactosidase staining of quadriceps muscle, score versus control” value was “positive”.
